The source of these data is patent US6759060B2, “Synthetic particulate vectors and preparation process” (Biovector Therapeutics, S.A., priority 1993, dated 2004).

Several values for one entry are separate records, joined by “and”; a condition that tells them apart may be missing. Equal values may be shown once.

For data set [1] the following is noted: cited from earlier work.
Data set [2] can be described thus: Filterability of ddCTP/PSC (filtration yield). The format is physicochemical. The conditions noted are these: ddCTP with or without cationic PSC.

The pKa is the negative logarithm of the acid dissociation constant. On to `COc1cccc2c1C(=O)c1c(O)c3c(c(O)c1C2=O)C[C@@](O)(C(=O)CO)C[C@@H]3O[C@H]1C[C@H](N)[C@H](O)[C@H](C)O1` [Doxorubicin], for which the pKa in data set [1] was 8.5 and 8.2-8.5.

In turn, “dideoxy cytidine triphosphate [Free ddCTP]” registered a Filtration yield % in data set [2] of 99.4 ± 0.8%.
